The values below come from ChEMBL document CHEMBL3596122, “Isoform-Selective and Stereoselective Inhibition of Hypoxia Inducible Factor-2” (J Med Chem, 2015).

Activity calls are given as the source filed them. No cut-off for these calls is given here.

The target in test [1] is T1, Endothelial PAS domain-containing protein 1 (Homo sapiens, UniProt Q99814, S304M).
Test [2] addresses T2, Endothelial PAS domain-containing protein 1 (Homo sapiens, UniProt Q99814).
Description: Binding affinity to wild type GST-tagged HIF-2alpha PAS-B (240 to 350) (unknown origin) expressed in Escherichia coli assessed as inhibition of interaction with His6-Gbeta1/FLAG fused ARNT PAS-B after 4 hrs by AlphaScreen assay
The target of test [3] is T2, Endothelial PAS domain-containing protein 1. This is another data set of the same source.
Description: Binding affinity to wild type His6-Gbeta1-fused HIF-2alpha PAS-B domain (240 to 350) (unknown origin) expressed in Escherichia coli by ITC analysis
Test [4] has the same target. Particulars: Hep 3B2, 0.01 to 10 uM.
Description: Inhibition of HIF-2alpha in human Hep3B cells assessed as downregulation of EPO mRNA expression at 0.01 to 10 uM by RT-PCR analysis
Test [5] concerns the target Hypoxia-inducible factor 1-alpha (Homo sapiens, UniProt Q16665). The test is described as follows: Binding affinity to wild type GST-fused HIF-1alpha PAS-B domain (238 to 349) (unknown origin) expressed in Escherichia coli assessed as compound-protein complex formation by ITC analysis.
In test [6] the target is T2, Endothelial PAS domain-containing protein 1. The test is described as follows: Inhibition of HIF-2alpha in human Hep3B cells assessed as downregulation of EPO mRNA expression by RT-PCR analysis.
In test [7] the target is T1, Endothelial PAS domain-containing protein 1. The test can be described thus: Binding affinity to His6-Gbeta1-fused HIF-2alpha PAS-B domain S304M mutant (240 to 350) (unknown origin) expressed in Escherichia coli by ITC analysis. A general note: ITC needs no label: the signal is the heat of the interaction.
For a further test, the system named is Hep 3B2. The test is described as follows: Effect on HIF-1-mediated PGK1 mRNA expression in human Hep3B cells at 0.01 to 10 uM by RT-PCR analysis. The format is cell-based.

T2 sequence (Q99814 whole entry, the tested form may be a part): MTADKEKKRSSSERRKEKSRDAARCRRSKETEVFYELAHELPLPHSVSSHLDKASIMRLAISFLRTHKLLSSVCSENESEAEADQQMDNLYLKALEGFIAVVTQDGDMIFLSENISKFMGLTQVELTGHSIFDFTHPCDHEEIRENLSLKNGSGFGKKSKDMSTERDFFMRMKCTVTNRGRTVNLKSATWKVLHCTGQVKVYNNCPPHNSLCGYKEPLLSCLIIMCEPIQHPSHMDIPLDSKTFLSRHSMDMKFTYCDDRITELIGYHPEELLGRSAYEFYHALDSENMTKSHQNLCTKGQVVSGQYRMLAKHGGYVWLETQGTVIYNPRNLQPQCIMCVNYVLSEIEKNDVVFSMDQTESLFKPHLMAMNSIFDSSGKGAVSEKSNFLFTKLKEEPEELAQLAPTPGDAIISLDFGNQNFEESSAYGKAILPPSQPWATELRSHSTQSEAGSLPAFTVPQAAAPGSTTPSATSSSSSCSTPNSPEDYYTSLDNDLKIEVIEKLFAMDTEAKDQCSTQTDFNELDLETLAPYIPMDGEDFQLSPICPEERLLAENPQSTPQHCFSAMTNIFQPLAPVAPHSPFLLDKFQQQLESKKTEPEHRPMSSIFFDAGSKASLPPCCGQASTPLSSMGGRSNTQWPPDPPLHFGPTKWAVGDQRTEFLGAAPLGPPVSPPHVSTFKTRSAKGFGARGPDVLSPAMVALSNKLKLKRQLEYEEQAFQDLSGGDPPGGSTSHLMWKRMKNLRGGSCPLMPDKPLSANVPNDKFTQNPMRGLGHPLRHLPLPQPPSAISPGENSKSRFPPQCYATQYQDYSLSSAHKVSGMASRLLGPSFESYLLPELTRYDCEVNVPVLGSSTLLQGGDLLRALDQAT
T1 sequence (Q99814 whole entry S304M, the tested form may be a part): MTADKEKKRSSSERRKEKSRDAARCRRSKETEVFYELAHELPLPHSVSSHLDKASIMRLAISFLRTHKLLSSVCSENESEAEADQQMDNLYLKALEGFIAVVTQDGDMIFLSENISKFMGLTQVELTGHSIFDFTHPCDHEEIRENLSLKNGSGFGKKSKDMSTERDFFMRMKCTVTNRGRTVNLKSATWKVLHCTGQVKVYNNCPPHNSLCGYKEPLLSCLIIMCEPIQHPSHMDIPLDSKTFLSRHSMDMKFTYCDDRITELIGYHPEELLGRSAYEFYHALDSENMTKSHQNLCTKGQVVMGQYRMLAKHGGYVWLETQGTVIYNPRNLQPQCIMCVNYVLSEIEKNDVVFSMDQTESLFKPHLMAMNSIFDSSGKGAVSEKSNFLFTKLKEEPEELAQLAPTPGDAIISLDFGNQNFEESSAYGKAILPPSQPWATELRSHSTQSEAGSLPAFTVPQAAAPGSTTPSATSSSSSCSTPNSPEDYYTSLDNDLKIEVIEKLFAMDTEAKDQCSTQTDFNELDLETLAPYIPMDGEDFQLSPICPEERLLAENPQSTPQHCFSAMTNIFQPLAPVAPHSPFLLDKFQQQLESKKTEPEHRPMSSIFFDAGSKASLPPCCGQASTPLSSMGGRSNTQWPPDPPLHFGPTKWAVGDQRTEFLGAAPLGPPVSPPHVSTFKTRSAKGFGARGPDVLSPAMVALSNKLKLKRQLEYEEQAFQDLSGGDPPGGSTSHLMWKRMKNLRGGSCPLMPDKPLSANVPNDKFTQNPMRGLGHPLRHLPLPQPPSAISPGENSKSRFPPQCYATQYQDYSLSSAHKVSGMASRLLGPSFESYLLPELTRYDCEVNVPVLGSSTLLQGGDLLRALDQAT
Sequence of Hypoxia-inducible factor 1-alpha (Q16665 whole entry, the tested form may be a part): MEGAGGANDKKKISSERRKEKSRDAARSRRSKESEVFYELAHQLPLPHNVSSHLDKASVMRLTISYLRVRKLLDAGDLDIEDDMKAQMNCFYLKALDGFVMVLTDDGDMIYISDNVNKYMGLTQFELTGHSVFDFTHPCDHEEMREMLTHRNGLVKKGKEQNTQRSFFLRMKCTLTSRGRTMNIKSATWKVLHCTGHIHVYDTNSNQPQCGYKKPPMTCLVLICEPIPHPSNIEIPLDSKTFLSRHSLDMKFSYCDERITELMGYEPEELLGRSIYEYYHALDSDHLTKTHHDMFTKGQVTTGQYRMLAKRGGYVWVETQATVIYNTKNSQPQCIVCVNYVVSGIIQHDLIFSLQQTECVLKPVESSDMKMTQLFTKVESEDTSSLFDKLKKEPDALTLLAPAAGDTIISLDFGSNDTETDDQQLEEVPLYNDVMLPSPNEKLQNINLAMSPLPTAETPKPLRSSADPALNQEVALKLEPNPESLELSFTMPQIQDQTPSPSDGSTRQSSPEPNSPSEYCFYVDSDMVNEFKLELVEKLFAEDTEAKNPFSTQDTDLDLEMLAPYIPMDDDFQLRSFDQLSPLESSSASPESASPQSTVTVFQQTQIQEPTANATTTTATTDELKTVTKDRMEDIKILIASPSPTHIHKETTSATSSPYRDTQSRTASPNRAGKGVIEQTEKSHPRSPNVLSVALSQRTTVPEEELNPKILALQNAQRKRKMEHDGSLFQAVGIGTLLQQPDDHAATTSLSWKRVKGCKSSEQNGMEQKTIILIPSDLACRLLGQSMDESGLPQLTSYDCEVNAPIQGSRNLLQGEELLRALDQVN

As for `Fc1cc(Br)cc([C@H]2C[C@@H](c3cccc(Br)c3)n3nnnc3N2)c1`, the IC50 in test [1] and in test [2] was greater than 30000 nM in each case. The compound also returned a Kd in test [3] greater than 2000 nM. Moreover, the inhibition entry in test [4] was “inactive”.

The compound `CC(C)CC1CC(c2cccc(Br)c2)Nc2nnnn21` (racemic) came in with a Kd in test [3] of 1170 nM.

`Fc1cc(Br)cc([C@@H]2C[C@H](c3cccc(Br)c3)n3nnnc3N2)c1`: the Kd was greater than 5000 nM in test [5], 23 nM in test [3] and 2000 nM in test [7]. Further, the IC50 in test [1] is 14500 nM; in test [6], less than 1000 nM; in test [2], 43 nM. In the test on Hep 3B2, the outcome was inactive.

Compound `Fc1ccc(F)c(C2CC(c3cccc(Br)c3)Nc3nnnn32)c1F` (racemic) displayed a Kd in test [3] of 393 nM.

Compound `Clc1ccccc1C1CC(c2cccc(Br)c2)Nc2nnnn21` (racemic) yielded a Kd in test [3] of 361 nM.

In test [3], `Fc1ccc(Br)c(Cl)c1C1CC(c2cccc(Br)c2)Nc2nnnn21` (racemic) returned a Kd of 411 nM.

On to `Fc1ccc(Br)c(F)c1C1CC(c2cccc(Br)c2)Nc2nnnn21` (racemic), for which the dissociation constant Kd in test [3] was determined as 49 nM.

As to `Brc1cccc([C@@H]2C[C@H](c3ccccc3Br)n3nnnc3N2)c1`, the IC50 in test [1] came out at 18900 nM; in test [2], 314 nM. Moreover, the Kd in test [3] is 360 nM.

With `Fc1ccccc1C1CC(c2cccc(Br)c2)Nc2nnnn21` (racemic), in test [3], the equilibrium dissociation constant (Kd) was determined as 327 nM.

`Clc1cccc(C2CC(c3cccc(Br)c3)Nc3nnnn32)c1` (racemic) returned a Kd in test [3] of 116 nM.

With `Clc1ccc(Br)cc1[C@@H]1C[C@H](c2cccc(Br)c2)Nc2nnnn21`, the half-maximal inhibitory concentration (IC50) in test [1] and in test [2] was greater than 30000 nM each time. Moreover, the Kd in test [3] was greater than 2000 nM.

With `Brc1cccc(C2CC(c3ccccc3I)n3nnnc3N2)c1` (racemic), the Kd in test [3] came out at 766 nM.

`Clc1ccccc1[C@H]1C[C@@H](c2cccc(Br)c2)Nc2nnnn21`: the IC50 in test [1] came out at 15900 nM; in test [2] it was 195 nM. The Kd in test [3] is 294 nM.

On to `Fc1ccc(Cl)c(F)c1C1CC(c2cccc(Br)c2)Nc2nnnn21` (racemic), for which the affinity in test [3], expressed as Kd, was 85 nM.

In turn, `Fc1c(Br)ccc(Cl)c1C1CC(c2cccc(Br)c2)Nc2nnnn21` (racemic) showed a Kd in test [3] of 85 nM.

In turn, `Fc1c(Cl)ccc(Cl)c1C1CC(c2cccc(Br)c2)Nc2nnnn21` (racemic) displayed a Kd in test [3] of 194 nM.

Compound `Fc1c(Cl)cccc1C1CC(c2cccc(Br)c2)Nc2nnnn21` (racemic) registered a dissociation constant (Kd) in test [3] of 38 nM.

In test [3], `Fc1c(Br)ccc(Br)c1C1CC(c2cccc(Br)c2)Nc2nnnn21` (racemic) displayed a Kd of 240 nM.

Consider `Brc1cccc([C@@H]2C[C@H](c3cccc(Br)c3)n3nnnc3N2)c1`, for which the 50% inhibitory concentration (IC50) is greater than 30000 nM in test [1] and 112 nM in test [2]. In addition, in test [3], the Kd stood at 63 nM.

Consider `Fc1cc(Br)cc([C@@H]2C[C@H](c3ccccc3)n3nnnc3N2)c1`, for which the IC50 in test [1] came to 10100 nM; in test [2] it was 97 nM. In test [3], the Kd turned out to be 165 nM.

With `Fc1ccc(Br)c(F)c1[C@H]1C[C@@H](c2cccc(Br)c2)Nc2nnnn21`, the IC50 in test [1] came out at 3800 nM; in test [2], 32 nM. Further, the Kd in test [3] came out at 34 nM.

As for `Brc1cccc([C@H]2C[C@@H](c3cccc(Br)c3)n3nnnc3N2)c1`, the IC50 in test [1] and in test [2] was greater than 30000 nM each time. Also, the Kd in test [3] was greater than 2000 nM.

`Brc1cccc([C@H]2C[C@@H](c3ccccc3Br)n3nnnc3N2)c1`: the IC50 was greater than 30000 nM in test [1] and 28300 nM in test [2]. Moreover, the Kd in test [3] was greater than 2000 nM.

Turning to `Fc1cc(Br)cc([C@H]2C[C@@H](c3ccccc3)n3nnnc3N2)c1`, the IC50 in test [1] and in test [2] was greater than 30000 nM throughout. In test [3], this compound had a Kd greater than 2000 nM.

In the case of `Clc1ccccc1[C@@H]1C[C@H](c2cccc(Br)c2)Nc2nnnn21`, the IC50 in test [1] and in test [2] was greater than 30000 nM in each case. Besides, the Kd in test [3] was greater than 2000 nM.

As to `Fc1ccc(I)cc1C1CC(c2cccc(Br)c2)Nc2nnnn21` (racemic), in test [3], the affinity, expressed as Kd, was 159 nM.

For `Fc1cc(Br)cc(C2CC(c3ccccc3)n3nnnc3N2)c1` (racemic), the affinity in test [3], expressed as Kd, was 216 nM.

Consider `Brc1cccc(C2CC(c3cccc(Br)c3)n3nnnc3N2)c1` (racemic), for which binding in test [3] was put at a Kd of 70 nM.

In test [3], `Clc1ccc(Br)cc1C1CC(c2cccc(Br)c2)Nc2nnnn21` (racemic) returned a Kd of 126 nM.

Take `Clc1ccc(Br)cc1[C@H]1C[C@@H](c2cccc(Br)c2)Nc2nnnn21`: the 50% inhibitory concentration (IC50) in test [1] was found to be 23900 nM; in test [2], 87 nM. The compound also registered a Kd in test [3] of 125 nM.

With `Fc1cc(Br)cc(C2CC(c3cccc(Br)c3)n3nnnc3N2)c1` (racemic), the affinity in test [3], expressed as Kd, was 28 nM.

In turn, `Brc1cccc(C2CC(c3ccccc3Br)n3nnnc3N2)c1` (racemic) displayed a Kd in test [3] of 400 nM.

As to `Fc1ccc(Br)c(F)c1[C@@H]1C[C@H](c2cccc(Br)c2)Nc2nnnn21`, the IC50 in test [1] was greater than 30000 nM; in test [2], 22300 nM. The compound further came in with a Kd in test [3] greater than 2000 nM.

As usually defined, the IC50 is the midpoint of a concentration-inhibition curve. The term Kd denotes the concentration at which binding is half-saturated.
